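Cells were grown in 96-well plates and exposed to each compound for 48 hours at five concentrations; endpoints were interpolated linearly between bracketing concentrations, or set to the highest concentration if not reached. TGI: concentration producing complete growth inhibition.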
What was measured:
Assay in all cases: DTP human tumour cell line panel, 48 h
COLO 205 colon = test system: COLO 205 colon
HCC-2998 colon = test system: HCC-2998 colon
HCT-116 colon = test system: HCT-116 colon
HCT-15 colon = test system: HCT-15 colon
NCI/ADR-RES ovarian = test system: NCI/ADR-RES ovarian
RPMI-8226 leukemia = test system: RPMI-8226 leukemia
SF-268 CNS = test system: SF-268 CNS
T-47D breast = test system: T-47D breast
UACC-257 melanoma = test system: UACC-257 melanoma
TK-10 renal = test system: TK-10 renal

Compound | TGI (COLO 205 colon) | TGI (HCC-2998 colon) | TGI (HCT-116 colon) | TGI (HCT-15 colon) | TGI (NCI/ADR-RES ovarian) | TGI (RPMI-8226 leukemia) | TGI (SF-268 CNS) | TGI (T-47D breast) | TGI (UACC-257 melanoma) | TGI (TK-10 renal)
Cc1ccc2nc(NC(=O)/C(Cc3nc4ccc(Cl)cc4[nH]c3=O)=N\NC(C)(C)C)sc2c1 | > 100 µM | > 100 µM | > 100 µM | > 100 µM | > 100 µM | > 100 µM | > 100 µM | > 100 µM | > 100 µM | 
O=C1NC(=S)N(c2ccccc2)C1=O | > 100 µM | > 100 µM | > 100 µM | > 100 µM | > 100 µM | > 100 µM | > 100 µM | > 100 µM | > 100 µM | > 100 µM
CC(C)CN=C(N)N=C(N)N | > 100 µM | > 100 µM | > 100 µM | > 100 µM | > 100 µM | > 100 µM | > 100 µM | > 100 µM | > 100 µM | > 100 µM
CC1(O)OC(=O)C2=C1CCC1C2CCC2(C)C(O)CCC12 (stereo not given) |  | > 100 µM | > 100 µM | > 100 µM | > 100 µM | > 100 µM | > 100 µM | > 100 µM | > 100 µM | > 100 µM
O=C(CSC1=NCCN1)Nc1ccccc1 |  | 63.1 µM | 59.6 µM | > 100 µM | 73.6 µM | > 100 µM | 93.3 µM | 61.2 µM | 40.2 µM | 43.9 µM
Cc1nc(-c2ccc(N=Cc3ccc(N(CCOS(C)(=O)=O)CCOS(C)(=O)=O)cc3C)cc2)cs1 | > 100 µM | > 100 µM | > 100 µM | > 100 µM | > 100 µM | > 100 µM | 40.2 µM | 90.2 µM | > 100 µM | > 100 µM
Nc1nc(Cl)c(N)c(NCC2(CO)CC(CCCc3ccccc3)C2)n1 (stereo not given) | 45.6 µM | > 100 µM | > 100 µM | > 100 µM | 63.1 µM | > 50.1 µM | > 55.3 µM | > 100 µM | > 100 µM | > 100 µM
O=C(Nc1cccc(F)c1)c1cc2ccc(O)cc2oc1=Nc1ccccc1F | 41.7 µM | 28.7 µM | 12.9 µM | 13.8 µM | 10.3 µM | > 100 µM | 15.4 µM | 12.1 µM | 31.1 µM | 
COc1ccc2c(c1)CCN1CCc3cc(OC)c(OC)cc3CC21 (stereo not given) | > 100 µM | > 100 µM | > 100 µM | > 100 µM | > 100 µM | > 100 µM | > 100 µM | > 100 µM | > 100 µM | > 100 µM
COC(=O)c1c(O)ccc2c1C1(Cc3ccccc3C1=O)C(O)O2 (stereo not given) | > 100 µM | 69.9 µM | 32.6 µM | 54.2 µM | > 100 µM | 17.3 µM | 51.6 µM | 45.3 µM | > 100 µM | 52.6 µM
CCOP(=O)(OCC)C(C)(CC)NC (stereo not given) | > 100 µM | > 100 µM | > 100 µM | > 100 µM | > 100 µM |  | > 100 µM | > 100 µM | > 100 µM | > 100 µM
FC(F)(F)c1ccc2nc(Sc3ccccn3)cnc2c1 | > 100 µM | 38.3 µM | > 100 µM | > 100 µM | > 100 µM |  | > 100 µM | > 100 µM | > 100 µM | > 100 µM
COc1cc([C@@H]2c3cc(O)c(OC)cc3C=C(C(N)=O)[C@H]2C(N)=O)ccc1O | > 100 µM | > 100 µM | > 100 µM | > 100 µM | > 100 µM | > 100 µM | > 100 µM | > 100 µM | > 100 µM | 
Nc1ccc(CCN2CCN(CCCc3ccccc3)CC2)cc1 | > 100 µM | > 100 µM | > 100 µM | > 100 µM | > 100 µM | > 100 µM | > 100 µM | 95.8 µM | > 100 µM | > 100 µM
CC1OC(OC2C(OC(=O)[C@@H]3CC(C)(C)C[C@H]4C5=CC[C@@H]6[C@@]7(C)C[C@H](O)[C@H](OC8OC(CO)C(O)C(O)C8O)[C@@](C)(CO)[C@@H]7[C@H](O)C[C@@]6(C)[C@]5(C)CC[C@@]34C)OCC(O)C2O)C(O)C(O)C1O (stereo not given in full) | > 7.5 µM | > 7.5 µM | > 7.5 µM | > 7.5 µM | > 7.5 µM |  | > 7.5 µM | > 7.5 µM | > 7.5 µM | > 7.5 µM
CCNC1=C(NC(=O)CC)C(=O)c2ccccc2C1=O | > 100 µM | > 100 µM | > 100 µM | > 100 µM | > 100 µM | > 100 µM | > 100 µM | > 100 µM | > 100 µM | > 100 µM
CCC1(COC(NC(=O)c2ccccc2)(C(F)(F)F)C(F)(F)F)COC1 | > 100 µM | > 100 µM | > 100 µM | > 100 µM | > 100 µM | > 100 µM | > 100 µM | > 100 µM | > 100 µM | > 100 µM
CCC(c1c[nH]c2ccc(Br)cc12)c1c[nH]c2ccc(Br)cc12 | 6.09 µM | 5.73 µM | 15.1 µM | 15 µM | 13.3 µM | 11.3 µM | 20.7 µM | 7.97 µM | 23.9 µM | 22.9 µM
CC(C)[C@@H]1ON1C(C)c1ccccc1 (stereo not given in full) | > 100 µM | > 100 µM | > 100 µM | > 100 µM | > 100 µM | > 100 µM | > 100 µM | > 100 µM | > 100 µM | > 100 µM
CN(CCCNC(=O)c1nn(-c2ccc(Cl)cc2Cl)c2c1Cc1ccccc1-2)CCCNC(=O)c1nn(-c2ccc(Cl)cc2Cl)c2c1Cc1ccccc1-2 | 3.26 µM | 3 µM | 3.15 µM | 3.38 µM | 3.55 µM | 3 µM |  | 3.76 µM | 3.35 µM | 3.14 µM
COc1ccc(C(=O)c2[nH]c(Nc3ccc(Cl)cc3)c(C(=S)Nc3ccccc3)c2N)cc1 | > 100 µM | > 100 µM | > 100 µM | > 100 µM | > 100 µM |  | > 100 µM | > 100 µM | > 100 µM | > 100 µM

From PubChem BioAssay (NCI)
